PMC5905120, “An innovative immunotherapeutic strategy for ovarian cancer: CLEC10A and glycomimetic peptides” (Journal for Immunotherapy of Cancer, 2018)
“Also recorded” adds a separate entry of the source. Bridges are numbered along the chain shown (N, C = ends). Roman numbers before positions name the chains, in order. Where no end group is shown, it is not given here.

Experiments:
ASGPR-1 [1] = conditions: cited from earlier work
Protocol: The type II C-type lectin asialoglycoprotein receptor-1 (ASGPR-1, Ashwell-Morell receptor, CLEC4H1) on hepatic cells also binds GalNAc-containing structures. ASGPR-1 has a 60-fold greater preference for GalNAc over Gal. Each healthy rat hepatocyte expresses 4 to 5 × 10^5 molecules of ASGPR-1 as binding sites for asialo-orosomucoid or 1.8 × 10^6 molecules as determined by an ASGPR-1-targeted antibody, which provides a surface concentration for the receptor of 0.8 to 1 μM. […] Corresponding values for binding of svL4 to CLEC10A and ASGPR-1 of 0.24 ± 0.04 μM and 0.21 ± 0.03 μM, respectively, were obtained. […] Asialofetuin, a multi-glycosylated pro ...

[2] = tested on: ID8 ovarian cancer in C57BL/6 mice; experiment: Murine ovarian cancer model (ID8), sv6D and paclitaxel study; format: in vivo, mouse (C57BL/6)
Description: Mantel-Cox log-rank test, p (sv6D vs. PBS) = < 0.0001. Paclitaxel, brown; sv6D from day 45, blue; paclitaxel plus sv6D from day 100, purple; cremophor, yellow; PBS, black

ASGPR-1 [3] = experiment: Inhibition of svL4 binding to ASGPR-1; design: species or system human; conditions: 75 μM asialofetuin, 0.2 μM svL4
Protocol: Solid-phase binding assays were performed with streptavidin-, protein A/G-, or Nickel-coated microtiter plates (Pierce). His-tagged or Fc-fusion recombinant receptors (R&D Systems, Minneapolis, MN) were reconstituted in PBS. Sufficient receptors were added to wells to saturate the coating. His-tagged receptors were added to each well at a 5-fold excess over the stated capacity of the Ni coating to minimize non-specific binding of the peptide. […] The wells were washed four times with binding buffer and then incubated with 50 μL of 1 μg/mL streptavidin conjugated with peroxidase (Sigma-Aldrich) for 1 h. The wells were washed five times with binding buffer and 50 μL of peroxidase substrate (1-Step™ Ultra TMB, Pierce) were added. After several minutes to allow color development, the reaction was stopped with 50 μL 1 M H3PO4 and absorbance was measured at 450 nm. Bound streptavidin was quantitated by the specific activity of peroxidase (absorbance/ng protein conjugate/min) under the conditions of the assay.
Corresponding values for binding of svL4 to CLEC10A and ASGPR-1 of 0.24 ± 0.04 μM and 0.21 ± 0.03 μM, respectively, were obtained.

[4] = Antigenicity assay in mouse sera; format: in vivo; conditions: 1 nmole/g s.c., alternate days for 3 months; sera of 8 treated mice, Fig. 8
Protocol: The sequence of one arm of svL4 or sv6D was conjugated to keyhole limpet hemocyanin (KLH) and injected into rabbits at two week intervals (total of 3 injections) (New England Peptide, Inc., Gardner, MA). Two weeks after the final injection, sera were prepared. Mice were injected with a peptide every other day over a period of 3 months (total ~ 45 injections), blood was then collected by cardiac puncture and sera were prepared. Rabbit serum was diluted 1:10, whereas mouse serum was diluted 1:1 or 1:5 with PBS containing 0.05% Tween-20 (PBST). Sera were incubated in microtiter wells coated with protein A/G (Pierce) for 90 min. The wells were washed three times with PBST, and then incubated with 50 μL of 1 μM biotinylated svL4 or sv6D for 1 h. The wells were washed four times with PBST, incubated 1 h with 1 μg/mL streptavidin-peroxidase conjugate, and washed four times with PBST. Peroxidase activity was assayed as above under Binding Assays.
Fig. 8 Test for antigenicity of svL4 and sv6D. Anti-sera were generated in rabbits against KLH-conjugates of the sequences of svL4 or sv6D and diluted 1:10. Mouse sera were collected after alternate-day injections of svL4 over 3 months, diluted 1:1 with PBS and added to protein-A/G-coated wells. Biotinylated svL4 or sv6D was added to wells and bound peptide was detected with a streptavidin-peroxidase conjugate. […]

human CLEC10A = target: T1, human CLEC10A (Homo sapiens, UniProt Q8IUN9); experiment: Solid-phase binding to recombinant human CLEC10A; conditions: for binding to CLEC10A: Fig. 2a, representative of 3 independent experiments
T1 construct: purchased R&D Systems
T1 sequence (Q8IUN9 61-316 limits assumed): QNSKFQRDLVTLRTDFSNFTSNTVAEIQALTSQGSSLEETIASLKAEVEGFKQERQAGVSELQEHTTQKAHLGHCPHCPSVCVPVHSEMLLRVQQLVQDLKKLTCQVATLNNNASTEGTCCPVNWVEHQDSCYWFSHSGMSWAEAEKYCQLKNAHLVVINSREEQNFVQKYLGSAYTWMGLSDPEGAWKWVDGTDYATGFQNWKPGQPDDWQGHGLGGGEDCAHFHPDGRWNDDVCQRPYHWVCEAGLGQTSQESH
Protocol: (§1) Solid-phase binding assays were performed with streptavidin-, protein A/G-, or Nickel-coated microtiter plates (Pierce). His-tagged or Fc-fusion recombinant receptors (R&D Systems, Minneapolis, MN) were reconstituted in PBS. Sufficient receptors were added to wells to saturate the coating. His-tagged receptors were added to each well at a 5-fold excess over the stated capacity of the Ni coating to minimize non-specific binding of the peptide. Wells were washed three times with binding buffer (25 mM Tris HCl, pH 7.4, 150 mM NaCl, 0.05% Tween-20) to remove unbound receptor and 50 μL of 2 μM biotinylated peptide in binding buffer were added and allowed to incubate for 1 h. The wells were washed four times with binding buffer and then incubated with 50 μL of 1 μg/mL streptavidin conjugated with peroxidase (Sigma-Aldrich) for 1 h. The wells were washed five times with binding buffer and 50 μL of peroxidase substrate (1-Step™ Ultra TMB, Pierce) were added. After several minutes to allow color development, the reaction was stopped with 50 μL 1 M H3PO4 and absorbance was measured at 450 nm. Bound streptavidin was quantitated by the specific activity of peroxidase (absorbance/ng protein conjugate/min) under the conditions of the assay.
(§2) Solid-phase binding assays were performed with recombinant human receptors. Three variations of the binding assay were used in this study, all of which allowed the arms of the tetravalent peptide to have full flexibility. (i) Biotinylated peptide was bound in microtiter wells coated with streptavidin and incubated with recombinant human receptors. After extensive washing, the bound receptor was measured by peroxidase conjugated to a receptor-specific antibody. (ii) The extracellular domains of receptors, which were fused with the Fc domain of immunoglobulin IgG, were bound in wells coated with protein A/G. Biotinylated peptide was incubated with the receptors and, after extensive washing, bound peptide was measured with streptavidin conjugated with peroxidase. Or (iii), recombinant receptors with a poly-His tag were bound to Nickel-coated wells and incubated with biotinylated peptide. svL4 and sv6D contain His residues (see Table 1) and can bind to the Ni coating, which was minimized by adding sufficient poly-His-tagged receptor to saturate the Ni coating.

human ASGPR-1 = target: T2, human ASGPR-1 (Homo sapiens, UniProt P07306); experiment: Solid-phase binding to recombinant human ASGPR-1; conditions: for binding to ASGPR-1: Fig. 2a, representative of 3 independent experiments
T2 construct: purchased R&D Systems
T2 sequence (P07306 62-291 limits assumed): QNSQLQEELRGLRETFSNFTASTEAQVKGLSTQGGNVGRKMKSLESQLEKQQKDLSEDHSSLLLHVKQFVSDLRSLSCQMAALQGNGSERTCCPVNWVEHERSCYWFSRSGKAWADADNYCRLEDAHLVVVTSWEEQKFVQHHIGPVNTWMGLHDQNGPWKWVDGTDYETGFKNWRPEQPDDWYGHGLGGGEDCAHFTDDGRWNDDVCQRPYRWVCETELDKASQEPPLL
Protocol: as §1, §2

[5] = tested on: peritoneal cells of C57BL/6 mice; experiment: Peritoneal immune cell populations by flow cytometry, C57BL/6 mice; format: in vivo, mouse (C57BL/6); conditions: 1 nmole/g s.c., 5-day period, Fig. 5 (non-binding control)
Protocol: Healthy C57BL/6 male mice, 10 weeks old, were injected subcutaneously with peptides on alternate days. Peritoneal cells were isolated from mice 24 h after dosing by injecting ice cold PBS (containing 3% FBS) into the peritoneal cavity, gently massaging the abdomen, and then collecting the fluid, which was transferred into K2EDTA-treated tubes for evaluation of specific biomarkers. Cells from three mice in each group were pooled, counted and divided among FACS tubes (1 × 10^6 cells per tube). Cells were washed once in PBS containing 3% FBS, then stained with 0.25 to 1 μg of fluorescently conjugated antibody per 10^6 cells in 100 μL of buffer as recommended by the manufacturer (Table 2).
Cells were incubated with the antibodies for 30 min at 4 °C in the dark. Following staining, the cells were washed two times with PBS/3% FBS and immediately analyzed with a MACSQuant flow cytometer (Miltenyi Biotech, Inc., San Diego, CA). Compensation was performed using single stain tubes for each color present in the analysis as well as an unstained control sample. Collection of flow cytometric data and analysis with FlowJo software, version 10.0.6 (FlowJo, LLC, Ashland, OR) were performed by Biomodels LLC (Watertown, MA).
To examine whether increases occurred in mature immune cells, peritoneal cells from Balb/c and C57BL/6 mice were analyzed by flow cytometry after cells were stained with the markers listed in Table 2. […] To explore this observation more extensively, svL4 or sv6D was injected into C57BL/6 mice on day 0, 2 or 4. Peritoneal cells were examined by flow cytometry 24 h after each injection. Shown in Fig. 5 are results expressed as cell counts for F4/80 CD11b CD86 (mature, active macrophages); CD11c (DCs); CD11c CD 86 (activated DCs); CD4 CD69 (activated T cells); CD8 CD69 (activated cytotoxic T cells); NK1.1 CD3^+ CD69 (activated NKT cells); NK1.1 CD3^− CD69 (activated NK cells); CD19 (B cells); and CD19 CD73 CD80 CD273 (memory B cells). The numbers of these mature, activated cells continued to increase with each injection.
Fig. 5 Expansion of peritoneal cells in C57BL/6 mice. Mice were injected subcutaneously at a dose of 1 nmole/g body weight of svL4, sv6D or svC1. Cells in each population recovered in a peritoneal lavage are expressed as cell counts (in thousands). Cells from three mice in each treatment group were pooled for analysis. The number of cells in each population was normalized to the average recovery of total cells from all groups. For each cell type, the left-hand, middle and right-hand set of bars represent samples from mice treated with svL4, sv6D or svC1, respectively. Mice were injected on days 0, 2 and 4, and cells were collected 24 h after each injection. Day 1, open bar; day 3, grey bar; day 5, black bar. Populations that express activation markers are indicated by an asterisk

PD-1 = conditions: patients with ovarian cancer; ref [106], [107]; cited from earlier work
Description: Paclitaxel is currently used as a chemotherapeutic drug that acts by stabilizing microtubules and arresting cells in the cell cycle at the G2/M boundary. Paclitaxel is often combined with a platinum-based drug. Patients treated with these drugs experience a significant level of toxicity. […] However, because sv6D induces proliferation of immune cells, initiation of treatment should perhaps occur after the cell cycle inhibitory action of paclitaxel has dissipated. Pat ...

[6] = target: recombinant human CLEC10A (C-type lectin receptor family member 10A) (human) (UniProt Q8IUN9); experiment: ELISA; solid-phase binding assay as a function of the concentration of peptide; KD from double-reciprocal plots of the binding curves; extensive wash steps
[7] = target: recombinant human asialoglycoprotein receptor-1 (ASGPR-1) (human) (UniProt P07306); experiment: as above
[8] = double-reciprocal plot of binding vs. peptide concentration, biotinylated peptide, binding buffer 25 mM Tris HCl pH 7.4, 150 mM NaCl, 0.05% Tween-20, 1 h, streptavidin-peroxidase 450 nm, ± S.D., 4 separate assays

CC(=O)N[C@H]1C(O)O[C@H](CO)[C@H](O)[C@@H]1O (mixture of isomers) [GalNAc, N-acetylgalactosamine]
preference of ASGPR-1 for GalNAc over Gal (ASGPR-1 [1]; ref [39]): 60 fold

CC(=O)O[C@H]1C(=O)[C@@]2(C)[C@H]([C@H](OC(=O)c3ccccc3)[C@]3(O)C[C@H](OC(=O)[C@H](O)[C@@H](NC(=O)c4ccccc4)c4ccccc4)C(C)=C1C3(C)C)[C@]1(OC(C)=O)CO[C@@H]1C[C@@H]2O [paclitaxel]
body weight increase (ascites) ([2]; aggressive disease, two weeks of treatment, sv6D 0.1 nmole/g s.c. alternate days, paclitaxel 18 μg/g i.p. days 45, 47, 49): had not significantly increased
ρ of body weight on day 58 vs. PBS or no treatment ([2]; paclitaxel 18 μg/g i.p. days 45, 47, 49, t test, Fig. 6a): < 0.05
median survival ([2]; paclitaxel alone, PBS control 122 days, Fig. 6c): approximately 141 days
ρ of body weight on day 121, paclitaxel vs. PBS ([2]; t test, Fig. 6b): < 0.05

Asialofetuin: multi-glycosylated protein
IC50 (ASGPR-1 [1]; ASGPR-1, ref [43]): 45600 ± 2700 nM
inhibition of binding of svL4 to ASGPR-1 (ASGPR-1 [3]): 53%

I: NQHTPRGGGSKK-NH2 / II: NQHTPRGGGSK / III: NQHTPRGGGS / IV: NQHTPRGGGS (amide I:11-IV:C, I:12-II:C, II:11-III:C) [sv6D]
antibodies that bind the peptides in mouse sera [4]: negative
Kd (human CLEC10A; [8]): 150 ± 20 nM
Kd (human ASGPR-1; [8]): 120 ± 10 nM

[(VQATQS- GGGS)2K]2K-NH2 [svC1]
expansion of specific cell types [5]: did not increase significantly
binding to CLEC10A (human CLEC10A): near the level of blank wells; also recorded: does not bind to CLEC10A
binding to ASGPR-1 (human ASGPR-1): near the level of blank wells

[(VSNQH- GGGS)2K]2K-NH2 [svD2]
binding to CLEC10A (human CLEC10A): bound weakly
binding to ASGPR-1 (human ASGPR-1): bound weakly

nivolumab: antibody against the inhibitory receptor PD-1
overall response rate (PD-1): 15%

pembroliumab: antibody against the inhibitory receptor PD-1
overall response rate (PD-1): 15%

B1: svL4, tetravalent peptide [(…-GGGS)2K]2K-NH2 (designed binder)
chain 1: VQATQSNQHTPRGGGS
chain 2: Lys-Lys-Lys-NH2
modifications: not fully specified; printed as [(VQATQSNQHTPR-GGGS)_2_K]_2_K-NH_2_; also: tetravalent: four arms joined by C-termini to branched tri-lysine core
Kd [6]: 240 nM
Kd [7]: 210 nM
